One may read the EC50 as the concentration giving half of the maximal effect. A low value points to an effect from little substance.

For the experiment, the system named is hypoxia-inducible endogenous VEGF expression in HeLa cells. Description: Hypoxia-inducible endogenous VEGF expression, VEGF ELISA of conditioned media (dose-response EC50). The class given is cell-based. Particulars: Homo sapiens, HeLa cells, hypoxic conditions (1% O2, 5% CO2). The method, boiled down: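 Secreted VEGF was quantified by ELISA against a per-assay standard curve after HeLa cells spent 24-48 h in 1% O2, 5% CO2, N2 balance with or without compound. Across a series of, e.g., seven concentrations, percentage inhibition (max 100%, min 0%) gave EC50 and CC50 values.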
A general note: ELISA stands for enzyme-linked immunosorbent assay.

Structures are written as SMILES. Some results are limits rather than exact numbers.

For `O=C(Oc1ccc(F)cc1)N1CCc2c([nH]c3ccc(Cl)cc23)C1c1ccc(OCCn2ccnc2)cc1` (centres unmarked) [Compound 835], the EC50 lay within 40 to 200 nM.

Molecule `O=C(Oc1ccc(F)cc1)N1CCc2c([nH]c3ccc(Cl)cc23)C1c1ccc(OCCn2cccn2)cc1` (centres unmarked) [Compound 836] yielded an EC50 of 8 to 40 nM. The molecule `O=C(Oc1ccc(Cl)cc1)N1CCc2c([nH]c3ccc(Cl)cc23)C1c1ccc(OCCn2ccnn2)cc1` (centres unmarked) [Compound 839] came in with an EC50 of 8 to 40 nM. On to `O=C(Oc1ccc(Cl)cc1)N1CCc2c([nH]c3ccc(Cl)cc23)C1c1ccc(OCCn2cncn2)cc1` (centres unmarked) [Compound 840], for which the EC50 fell in the range of 8 to 40 nM. As for `CC(C)(C)OC(=O)N1CCC(COc2ccc(C3c4[nH]c5ccc(Cl)cc5c4CCN3C(=O)Oc3ccc(Cl)cc3)cc2)CC1` (centres unmarked) [Compound 845], the EC50 was 40 to 200 nM. Molecule `NCC(O)COc1ccc(C2c3[nH]c4ccc(Cl)cc4c3CCN2C(=O)Oc2ccc(Cl)cc2)cc1` (centres unmarked) [Compound 846] came in with an EC50 of 40 to 200 nM. `CC(=O)NCC(O)COc1ccc(C2c3[nH]c4ccc(Cl)cc4c3CCN2C(=O)Oc2ccc(Cl)cc2)cc1` (centres unmarked) [Compound 847] came in with an EC50 of 8 to 40 nM.

With `COC(=O)NCC(O)COc1ccc(C2c3[nH]c4ccc(Cl)cc4c3CCN2C(=O)Oc2ccc(Cl)cc2)cc1` (centres unmarked) [Compound 848], the EC50 was under 8 nM. The same measure for `CS(=O)(=O)NCC(O)COc1ccc(C2c3[nH]c4ccc(Cl)cc4c3CCN2C(=O)Oc2ccc(Cl)cc2)cc1` (centres unmarked) [Compound 849]: 8 to 40 nM; for `CNCC(O)COc1ccc(C2c3[nH]c4ccc(Cl)cc4c3CCN2C(=O)Oc2ccc(Cl)cc2)cc1` (centres unmarked) [Compound 850]: 40 to 200 nM. The same measure for `O=C(Oc1ccc(Cl)cc1)N1CCc2c([nH]c3ccc(Cl)cc23)C1c1ccc(OCC(O)Cn2ccnc2)cc1` (centres unmarked) [Compound 867]: 8 to 40 nM; for `Cc1ccc(OC(=O)N2CCc3c([nH]c4ccc(Cl)cc34)C2c2ccc(OCCCn3cncn3)cc2)cc1` (centres unmarked) [Compound 882]: under 8 nM; for `COc1ccc(OC(=O)N2CCc3c([nH]c4ccc(Cl)cc34)C2c2ccc(OCCCn3cncn3)cc2)cc1` (centres unmarked) [Compound 888]: under 8 nM. On to `O=C(Oc1ccc(F)cc1)N1CCc2c([nH]c3ccc(Cl)cc23)C1c1ccc(OCCCn2ccnc2)cc1` (centres unmarked) [Compound 889], for which the EC50 was under 8 nM. With `O=C(Oc1ccccc1)N1CCc2c([nH]c3ccc(Cl)cc23)C1c1ccc(OCCCn2cncn2)cc1` (centres unmarked) [Compound 891], the EC50 was under 8 nM. Take `O=C(Oc1ccc(F)cc1)N1CCc2c([nH]c3ccc(Cl)cc23)C1c1ccc(OCCCn2cncn2)cc1` (centres unmarked) [Compound 892]: the EC50 was under 8 nM. The same measure for `O=C(Oc1ccc(Cl)cc1)N1CCc2c([nH]c3ccc(Cl)cc23)C1c1ccc(OCCCN2CCOCC2)cc1` (centres unmarked) [Compound 894]: under 8 nM; for `Cc1ccc(OC(=O)N2CCc3c([nH]c4ccc(Cl)cc34)C2c2ccc(OCCCn3ccnc3)cc2)cc1` (centres unmarked) [Compound 900]: under 8 nM; for `CC(=O)N1CCN(CCCOc2ccc(C3c4[nH]c5ccc(Cl)cc5c4CCN3C(=O)Oc3ccc(Cl)cc3)cc2)CC1` (centres unmarked) [Compound 903]: under 8 nM. As for `O=C(Oc1ccc(Cl)cc1)N1CCc2c([nH]c3ccc(Cl)cc23)C1c1ccc(OCC(O)CN2CCOCC2)cc1` (centres unmarked) [Compound 904], the EC50 was under 8 nM. With `COCCN(C)CCCOc1ccc(C2c3[nH]c4ccc(Cl)cc4c3CCN2C(=O)Oc2ccc(Cl)cc2)cc1` (centres unmarked) [Compound 908] the figure was under 8 nM; with `O=C(Oc1ccccc1)N1CCc2c([nH]c3ccc(Cl)cc23)C1c1ccc(OCCCn2ccnc2)cc1` (centres unmarked) [Compound 911], under 8 nM.

The molecule `COCCN(CCOC)CC(O)COc1ccc(C2c3[nH]c4ccc(Cl)cc4c3CCN2C(=O)Oc2ccc(F)cc2)cc1` (centres unmarked) [Compound 913] showed an EC50 of under 8 nM. `Cc1ccc(OC(=O)N2CCc3c([nH]c4ccc(Cl)cc34)C2c2ccc(OCCCCl)cc2)cc1` (centres unmarked) [Compound 915] yielded an EC50 of under 8 nM. `COCCN(CCCOc1ccc(C2c3[nH]c4ccc(Cl)cc4c3CCN2C(=O)Oc2ccc(Cl)cc2)cc1)CCOC` (centres unmarked) [Compound 916] yielded an EC50 of under 8 nM. Molecule `O=C(Oc1ccc(Cl)cc1)N1CCc2c([nH]c3ccc(Cl)cc23)C1c1ccc(OCCCn2ccnc2)cc1` (centres unmarked) [Compound 917] returned an EC50 of under 8 nM. The molecule `COCCN(CCOC)CC(O)COc1ccc(C2c3[nH]c4ccc(Cl)cc4c3CCN2C(=O)Oc2ccc(Cl)cc2)cc1` (centres unmarked) [Compound 918] gave an EC50 of under 8 nM.

For the molecule `COc1ccc(OC(=O)N2CCc3c([nH]c4ccc(Cl)cc34)C2c2ccc(OCCCn3ccnc3)cc2)cc1` (centres unmarked) [Compound 920], the EC50 was under 8 nM. As for `O=C(Oc1ccc(Cl)cc1)N1CCc2c([nH]c3ccc(Cl)cc23)C1c1ccc(OCCCCl)cc1` (centres unmarked) [Compound 921], the EC50 was under 8 nM. As for `O=C(Oc1ccc(F)cc1)N1CCc2c([nH]c3ccc(Cl)cc23)C1c1ccc(OCC(O)Cn2ccnc2)cc1` (centres unmarked) [Compound 922], the concentration giving a half-maximal response (EC50) was under 8 nM.

Molecule `O=C(Oc1ccc(Cl)cc1)N1CCc2c([nH]c3ccc(Cl)cc23)C1c1ccc(OCC(O)CN2CCSCC2)cc1` (centres unmarked) [Compound 923] gave a 50% effective concentration (EC50) of under 8 nM. `O=C(Oc1ccc(F)cc1)N1CCc2c([nH]c3ccc(Cl)cc23)C1c1ccc(OCC(O)CN2CCSCC2)cc1` (centres unmarked) [Compound 925]: the EC50 is under 8 nM. Turning to `O=C(Oc1ccccc1Cl)N1CCc2c([nH]c3ccc(Cl)cc23)C1c1ccc(OCCCn2cncn2)cc1` (centres unmarked) [Compound 926], the EC50 is under 8 nM. With `CN1CCCC(COc2ccc(C3c4[nH]c5ccc(Cl)cc5c4CCN3C(=O)Oc3ccc(F)cc3)cc2)C1` (centres unmarked) [Compound 932] the figure was under 8 nM; with `O=C(Oc1ccc(Cl)cc1)N1CCc2c([nH]c3ccc(Cl)cc23)C1c1ccc(OCCCN2CCSCC2)cc1` (centres unmarked) [Compound 933], under 8 nM. In the case of `O=C(Oc1ccccc1Cl)N1CCc2c([nH]c3ccc(Cl)cc23)C1c1ccc(OCCCn2ccnc2)cc1` (centres unmarked) [Compound 934], the EC50 was under 8 nM.

The molecule `COCCN(C)CC(O)COc1ccc(C2c3[nH]c4ccc(Cl)cc4c3CCN2C(=O)Oc2ccc(F)cc2)cc1` (centres unmarked) [Compound 936] registered an EC50 of under 8 nM. Take `CCN(CC)CC(O)COc1ccc(C2c3[nH]c4ccc(Cl)cc4c3CCN2C(=O)Oc2ccc(Cl)cc2)cc1` (centres unmarked) [Compound 938]: the EC50 is under 8 nM. Consider `O=C(Oc1ccc(F)cc1)N1CCc2c([nH]c3ccc(Cl)cc23)C1c1ccc(OCC(O)Cn2ccnn2)cc1` (centres unmarked) [Compound 941], for which the EC50 was under 8 nM.

The molecule `O=C(Oc1ccc(Cl)cc1)N1CCc2c([nH]c3ccc(Cl)cc23)C1c1ccc(OCCCN2CCN(CCO)CC2)cc1` (centres unmarked) [Compound 942] registered an EC50 of 8 to 40 nM. For `COc1ccc(OC(=O)N2CCc3c([nH]c4ccc(Cl)cc34)C2c2ccc(OCCCCl)cc2)cc1` (centres unmarked) [Compound 944], the EC50 is 8 to 40 nM.

As to `CCN(CC)CCCOc1ccc(C2c3[nH]c4ccc(Cl)cc4c3CCN2C(=O)Oc2ccc(Cl)cc2)cc1` (centres unmarked) [Compound 946], the half-maximal effective concentration (EC50) is 8 to 40 nM.

In turn, `Cc1ccc(OC(=O)N2CCc3c([nH]c4ccc(Cl)cc34)C2c2ccc(OCC3CCCN(C)C3)cc2)cc1` (centres unmarked) [Compound 951] registered a concentration giving a half-maximal response (EC50) of 8 to 40 nM. With `CN1CCCC(COc2ccc(C3c4[nH]c5ccc(Cl)cc5c4CCN3C(=O)Oc3ccccc3)cc2)C1` (centres unmarked) [Compound 952] the figure was 8 to 40 nM.

In turn, `CC(C)NCCCOc1ccc(C2c3[nH]c4ccc(Cl)cc4c3CCN2C(=O)Oc2ccc(Cl)cc2)cc1` (centres unmarked) [Compound 953] had an EC50 of 8 to 40 nM. With `CCS(=O)(=O)Nc1ccc(C2c3[nH]c4ccc(Cl)cc4c3CCN2C(=O)Oc2ccc(Cl)cc2)cc1` (centres unmarked) [Compound 958], the EC50 fell in the range of 8 to 40 nM. Molecule `O=C(Oc1ccc(Cl)cc1)N1CCc2c([nH]c3ccc(Cl)cc23)C1c1ccc(OCC(O)CN2CCN(CCO)CC2)cc1` (centres unmarked) [Compound 960] returned an EC50 of 8 to 40 nM. The same measure for `CN1CCN(CCCOc2ccc(C3c4[nH]c5ccc(Cl)cc5c4CCN3C(=O)Oc3ccc(Cl)cc3)cc2)CC1` (centres unmarked) [Compound 961]: 8 to 40 nM; for `CN1CCN(CC(O)COc2ccc(C3c4[nH]c5ccc(Cl)cc5c4CCN3C(=O)Oc3ccc(F)cc3)cc2)CC1` (centres unmarked) [Compound 963]: 8 to 40 nM. On to `COCCN(C)CC(O)COc1ccc(C2c3[nH]c4ccc(Cl)cc4c3CCN2C(=O)Oc2ccc(Cl)cc2)cc1` (centres unmarked) [Compound 964], for which the EC50 lay in the range of 8 to 40 nM. The molecule `CN1CCCC(COc2ccc(C3c4[nH]c5ccc(Cl)cc5c4CCN3C(=O)Oc3ccc(Cl)cc3)cc2)C1` (centres unmarked) [Compound 966] came in with an EC50 of 8 to 40 nM.

Consider `CN1CCN(CC(O)COc2ccc(C3c4[nH]c5ccc(Cl)cc5c4CCN3C(=O)Oc3ccc(Cl)cc3)cc2)CC1` (centres unmarked) [Compound 970], for which the concentration for a half-maximal effect (EC50) lay in the range of 8 to 40 nM. With `O=C(Oc1ccc(Cl)cc1)N1CCc2c([nH]c3ccc(Cl)cc23)C1c1ccc(OCC(O)Cn2ccnn2)cc1` (centres unmarked) [Compound 973], the EC50 was 8 to 40 nM. `CS(=O)(=O)Nc1ccc(C2c3[nH]c4ccc(Cl)cc4c3CCN2C(=O)Oc2ccc(Cl)cc2)cc1` (centres unmarked) [Compound 974] gave an EC50 of 40 to 200 nM. The same measure for `CN1CCCC(COc2ccc(C3c4[nH]c5ccc(Cl)cc5c4CCN3C(=O)Oc3ccccc3Cl)cc2)C1` (centres unmarked) [Compound 976]: 40 to 200 nM; for `CC(C)NCC(O)COc1ccc(C2c3[nH]c4ccc(Cl)cc4c3CCN2C(=O)Oc2ccc(Cl)cc2)cc1` (centres unmarked) [Compound 977]: 40 to 200 nM. For `COc1ccc(OC(=O)N2CCc3c([nH]c4ccc(Cl)cc34)C2c2ccc(OCC3CCCN(C)C3)cc2)cc1` (centres unmarked) [Compound 981], the EC50 was 40 to 200 nM. `O=C(Oc1ccc(Cl)cc1)N1CCc2c([nH]c3ccc(Cl)cc23)C1c1ccc(N2CCCC2)cc1` (centres unmarked) [Compound 984] yielded an EC50 of 200 to 1000 nM. As to `CC(=O)N1CCN(CCCOc2ccc(C3c4[nH]c5ccc(Cl)cc5c4CCN3C(=O)Oc3ccc(F)cc3)cc2)CC1` (centres unmarked) [Compound 988], the EC50 is under 8 nM. Turning to `O=C(Oc1ccc(F)cc1)N1CCc2c([nH]c3ccc(Cl)cc23)C1c1ccc(OCCCN2CCOCC2)cc1` (centres unmarked) [Compound 989], the EC50 was under 8 nM. `COCCN(CCCOc1ccc(C2c3[nH]c4ccc(Cl)cc4c3CCN2C(=O)Oc2ccc(F)cc2)cc1)CCOC` (centres unmarked) [Compound 990] had an EC50 of under 8 nM. Molecule `O=C(Oc1ccc(F)cc1)N1CCc2c([nH]c3ccc(Cl)cc23)C1c1ccc(OCCCN2CCSCC2)cc1` (centres unmarked) [Compound 991] registered an EC50 of 40 to 200 nM.
